# Experimental data as given in ChEMBL document CHEMBL1201861, “Genomics of Drug Sensitity in Cancer screening data, Wellcome Trust Sanger Institute”.
# Test system: NCI-H446;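 note: growth inhibition of NCI-H446 cells determined by a cell viability assay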
# Assay: cells
# Format: functional, cell-based, Homo sapiens
# Settings: Homo sapiens, NCI-H446
# Description: SANGER: Inhibition of human NCI-H446 cell growth in a cell viability assay.
row,SMILES,IC50 [µM]
1,COc1cc(-c2nn([C@H]3CC[C@H](N4CCN(C(C)=O)CC4)CC3)c3ncnc(N)c23)ccc1NC(=O)c1cc2ccccc2n1C,> 5.12

# Test system: NCI-H69;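 note: growth inhibition of the cell line, read out with a cell viability assay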
# Assay: cells
# Format: functional, cell-based, Homo sapiens
# Settings: Homo sapiens, NCI-H69
# Description: SANGER: Inhibition of human NCI-H69 cell growth in a cell viability assay.
row,SMILES,IC50 [µM]
1,COc1cc(-c2nn([C@H]3CC[C@H](N4CCN(C(C)=O)CC4)CC3)c3ncnc(N)c23)ccc1NC(=O)c1cc2ccccc2n1C,> 5.12

# Test system: SNU-5;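 note: cell viability readout used to measure growth inhibition in human NCI-SNU-5 cells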
# Assay: cells
# Format: functional, cell-based, Homo sapiens
# Settings: Homo sapiens, SNU-5
# Description: SANGER: Inhibition of human NCI-SNU-5 cell growth in a cell viability assay.
row,SMILES,IC50 [µM]
1,COc1cc(-c2nn([C@H]3CC[C@H](N4CCN(C(C)=O)CC4)CC3)c3ncnc(N)c23)ccc1NC(=O)c1cc2ccccc2n1C,> 5.12

# Test system: NH-12;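 note: growth inhibition of NH-12 cells, read out with a cell viability assay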
# Assay: cells
# Format: functional, cell-based, Homo sapiens
# Settings: Homo sapiens, NH-12
# Description: SANGER: Inhibition of human NH-12 cell growth in a cell viability assay.
row,SMILES,IC50 [µM]
1,COc1cc(-c2nn([C@H]3CC[C@H](N4CCN(C(C)=O)CC4)CC3)c3ncnc(N)c23)ccc1NC(=O)c1cc2ccccc2n1C,> 5.12

# Test system: QIMR-WIL;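 note: growth inhibition of QIMR-WIL cells, read out with a cell viability assay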
# Assay: cells
# Format: functional, cell-based, Homo sapiens
# Settings: Homo sapiens, QIMR-WIL
# Description: SANGER: Inhibition of human QIMR-WIL cell growth in a cell viability assay.
row,SMILES,IC50 [µM]
1,COc1cc(-c2nn([C@H]3CC[C@H](N4CCN(C(C)=O)CC4)CC3)c3ncnc(N)c23)ccc1NC(=O)c1cc2ccccc2n1C,2.87

# Test system: RS4-11;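 note: growth inhibition of RS4-11 cells, read out by a cell viability assay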
# Assay: cells
# Format: functional, cell-based, Homo sapiens
# Settings: Homo sapiens, RS4-11
# Description: SANGER: Inhibition of human RS4-11 cell growth in a cell viability assay.
row,SMILES,IC50 [µM]
1,COc1cc(-c2nn([C@H]3CC[C@H](N4CCN(C(C)=O)CC4)CC3)c3ncnc(N)c23)ccc1NC(=O)c1cc2ccccc2n1C,> 5.12

# Test system: RXF 393;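 note: growth inhibition of human RXF 393 cells, read out with a cell viability assay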
# Assay: cells
# Format: functional, cell-based, Homo sapiens
# Settings: Homo sapiens, RXF 393
# Description: SANGER: Inhibition of human RXF393 cell growth in a cell viability assay.
row,SMILES,IC50 [µM]
1,COc1cc(-c2nn([C@H]3CC[C@H](N4CCN(C(C)=O)CC4)CC3)c3ncnc(N)c23)ccc1NC(=O)c1cc2ccccc2n1C,1.12

# Test system: Ramos-2G6-4C10;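 note: growth inhibition of the cell line, measured by a cell viability read-out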
# Assay: cells
# Format: functional, cell-based, Homo sapiens
# Settings: Homo sapiens, Ramos-2G6-4C10
# Description: SANGER: Inhibition of human Ramos-2G6-4C10 cell growth in a cell viability assay.
row,SMILES,IC50 [µM]
1,COc1cc(-c2nn([C@H]3CC[C@H](N4CCN(C(C)=O)CC4)CC3)c3ncnc(N)c23)ccc1NC(=O)c1cc2ccccc2n1C,> 5.12

# Test system: SCH;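 note: growth inhibition of human SCH cells, read out in a cell viability assay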
# Assay: cells
# Format: functional, cell-based, Homo sapiens
# Settings: Homo sapiens, SCH
# Description: SANGER: Inhibition of human SCH cell growth in a cell viability assay.
row,SMILES,IC50 [µM]
1,COc1cc(-c2nn([C@H]3CC[C@H](N4CCN(C(C)=O)CC4)CC3)c3ncnc(N)c23)ccc1NC(=O)c1cc2ccccc2n1C,> 5.12

# Test system: SJSA-1;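 note: growth inhibition of human SJSA-1 cells, read out through a cell viability measurement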
# Assay: cells
# Format: functional, cell-based, Homo sapiens
# Settings: Homo sapiens, SJSA-1
# Description: SANGER: Inhibition of human SJSA-1 cell growth in a cell viability assay.
row,SMILES,IC50 [µM]
1,COc1cc(-c2nn([C@H]3CC[C@H](N4CCN(C(C)=O)CC4)CC3)c3ncnc(N)c23)ccc1NC(=O)c1cc2ccccc2n1C,> 5.12

# Test system: SK-LMS-1;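 note: growth inhibition of human SK-LMS-1 cells, read out with a cell viability assay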
# Assay: cells
# Format: functional, cell-based, Homo sapiens
# Settings: Homo sapiens, SK-LMS-1
# Description: SANGER: Inhibition of human SK-LMS-1 cell growth in a cell viability assay.
row,SMILES,IC50 [µM]
1,COc1cc(-c2nn([C@H]3CC[C@H](N4CCN(C(C)=O)CC4)CC3)c3ncnc(N)c23)ccc1NC(=O)c1cc2ccccc2n1C,> 5.12

# Test system: SK-MEL-2;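 note: growth inhibition of human SK-MEL-2 cells measured with a cell viability assay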
# Assay: cells
# Format: functional, cell-based, Homo sapiens
# Settings: Homo sapiens, SK-MEL-2
# Description: SANGER: Inhibition of human SK-MEL-2 cell growth in a cell viability assay.
row,SMILES,IC50 [µM]
1,COc1cc(-c2nn([C@H]3CC[C@H](N4CCN(C(C)=O)CC4)CC3)c3ncnc(N)c23)ccc1NC(=O)c1cc2ccccc2n1C,> 5.12

# Test system: SK-PN-DW;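 note: growth inhibition measured with a viability assay on these cells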
# Assay: cells
# Format: functional, cell-based, Homo sapiens
# Settings: Homo sapiens, SK-PN-DW
# Description: SANGER: Inhibition of human SK-PN-DW cell growth in a cell viability assay.
row,SMILES,IC50 [µM]
1,COc1cc(-c2nn([C@H]3CC[C@H](N4CCN(C(C)=O)CC4)CC3)c3ncnc(N)c23)ccc1NC(=O)c1cc2ccccc2n1C,> 5.12

# Test system: SW684;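 note: growth inhibition of human SW684 cells, measured by a cell viability assay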
# Assay: cells
# Format: functional, cell-based, Homo sapiens
# Settings: Homo sapiens, SW684
# Description: SANGER: Inhibition of human SW684 cell growth in a cell viability assay.
row,SMILES,IC50 [µM]
1,COc1cc(-c2nn([C@H]3CC[C@H](N4CCN(C(C)=O)CC4)CC3)c3ncnc(N)c23)ccc1NC(=O)c1cc2ccccc2n1C,> 5.12

# Test system: A498;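 note: growth inhibition of human A498 cells, read out with a cell viability assay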
# Assay: cells
# Format: functional, cell-based, Homo sapiens
# Settings: Homo sapiens, A498
# Description: SANGER: Inhibition of human A498 cell growth in a cell viability assay.
row,SMILES,IC50 [µM]
1,COc1cc(-c2nn([C@H]3CC[C@H](N4CCN(C(C)=O)CC4)CC3)c3ncnc(N)c23)ccc1NC(=O)c1cc2ccccc2n1C,> 5.12

# Test system: ACN;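 note: growth inhibition of the human ACN cell line, read out via cell viability testing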
# Assay: cells
# Format: functional, cell-based, Homo sapiens
# Settings: Homo sapiens, ACN
# Description: SANGER: Inhibition of human ACN cell growth in a cell viability assay.
row,SMILES,IC50 [µM]
1,COc1cc(-c2nn([C@H]3CC[C@H](N4CCN(C(C)=O)CC4)CC3)c3ncnc(N)c23)ccc1NC(=O)c1cc2ccccc2n1C,> 5.12

# Test system: AM-38;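 note: growth inhibition of AM-38 cells of human origin, read out by a cell viability assay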
# Assay: cells
# Format: functional, cell-based, Homo sapiens
# Settings: Homo sapiens, AM-38
# Description: SANGER: Inhibition of human AM-38 cell growth in a cell viability assay.
row,SMILES,IC50 [µM]
1,COc1cc(-c2nn([C@H]3CC[C@H](N4CCN(C(C)=O)CC4)CC3)c3ncnc(N)c23)ccc1NC(=O)c1cc2ccccc2n1C,> 5.12

# Test system: BT-474
# Assay: cells
# Format: functional, cell-based, Homo sapiens
# Settings: Homo sapiens, BT-474
# Description: SANGER: Inhibition of human BT-474 cell growth in a cell viability assay.
row,SMILES,IC50 [µM]
1,COc1cc(-c2nn([C@H]3CC[C@H](N4CCN(C(C)=O)CC4)CC3)c3ncnc(N)c23)ccc1NC(=O)c1cc2ccccc2n1C,> 5.12

# Test system: Becker;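 note: growth inhibition of Becker cells, read out with a cell viability assay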
# Assay: cells
# Format: functional, cell-based, Homo sapiens
# Settings: Homo sapiens, Becker
# Description: SANGER: Inhibition of human Becker cell growth in a cell viability assay.
row,SMILES,IC50 [µM]
1,COc1cc(-c2nn([C@H]3CC[C@H](N4CCN(C(C)=O)CC4)CC3)c3ncnc(N)c23)ccc1NC(=O)c1cc2ccccc2n1C,4.21

# Test system: C8166;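 note: growth inhibition of human C8166 cells measured by a cell viability assay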
# Assay: cells
# Format: functional, cell-based, Homo sapiens
# Settings: Homo sapiens, C8166
# Description: SANGER: Inhibition of human C8166 cell growth in a cell viability assay.
row,SMILES,IC50 [µM]
1,COc1cc(-c2nn([C@H]3CC[C@H](N4CCN(C(C)=O)CC4)CC3)c3ncnc(N)c23)ccc1NC(=O)c1cc2ccccc2n1C,> 5.12

# Test system: TE-10;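 note: growth inhibition of TE-10 cells, measured by a cell viability assay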
# Assay: cells
# Format: functional, cell-based, Homo sapiens
# Settings: Homo sapiens, TE-10
# Description: SANGER: Inhibition of human TE-10 cell growth in a cell viability assay.
row,SMILES,IC50 [µM]
1,COc1cc(-c2nn([C@H]3CC[C@H](N4CCN(C(C)=O)CC4)CC3)c3ncnc(N)c23)ccc1NC(=O)c1cc2ccccc2n1C,2.36

# Test system: TE-6;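 note: growth inhibition of TE-6 cells, read out with a cell viability assay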
# Assay: cells
# Format: functional, cell-based, Homo sapiens
# Settings: Homo sapiens, TE-6
# Description: SANGER: Inhibition of human TE-6 cell growth in a cell viability assay.
row,SMILES,IC50 [µM]
1,COc1cc(-c2nn([C@H]3CC[C@H](N4CCN(C(C)=O)CC4)CC3)c3ncnc(N)c23)ccc1NC(=O)c1cc2ccccc2n1C,> 5.12

# Test system: TE-9;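 note: cell growth inhibition, measured with a cell viability readout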
# Assay: cells
# Format: functional, cell-based, Homo sapiens
# Settings: Homo sapiens, TE-9
# Description: SANGER: Inhibition of human TE-9 cell growth in a cell viability assay.
row,SMILES,IC50 [µM]
1,COc1cc(-c2nn([C@H]3CC[C@H](N4CCN(C(C)=O)CC4)CC3)c3ncnc(N)c23)ccc1NC(=O)c1cc2ccccc2n1C,> 5.12

# Test system: U-87 MG;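 note: growth inhibition of the cells measured with a viability assay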
# Assay: cells
# Format: functional, cell-based, Homo sapiens, U-87MG ATCC
# Settings: Homo sapiens, U-87 MG
# Description: SANGER: Inhibition of human U-87-MG cell growth in a cell viability assay.
row,SMILES,IC50 [µM]
1,COc1cc(-c2nn([C@H]3CC[C@H](N4CCN(C(C)=O)CC4)CC3)c3ncnc(N)c23)ccc1NC(=O)c1cc2ccccc2n1C,> 5.12

# Test system: UACC-257
# Assay: cells
# Format: functional, cell-based, Homo sapiens
# Settings: Homo sapiens, UACC-257
# Description: SANGER: Inhibition of human UACC-257 cell growth in a cell viability assay.
row,SMILES,IC50 [µM]
1,COc1cc(-c2nn([C@H]3CC[C@H](N4CCN(C(C)=O)CC4)CC3)c3ncnc(N)c23)ccc1NC(=O)c1cc2ccccc2n1C,> 5.12
